# Assay results from US20080031817A1, “Inhibition Of Superoxide Dismutase By Tetrathiomolybdate: Identification Of New Anti-Angiogenic And Antitumor Agents” (priority 2004, published 2008).
# Assays:
# HUVEC = HUVEC proliferation assay (acid phosphatase method); assay type: cell-based, human
# Procedure: Alternatively, cells at a density of 6000/well are plated in wells of 48 well microplates on 0.1% gelatin in 200 μl M200/2% FCS, and incubated at 37° C. in a humid atmosphere of 5% CO2 for 16 hrs. Compounds to be tested are diluted in M200 supplemented with 2% FCS and 1 ng/ml FGF-2 and added to the cells. Positive control contain no compound, and negative controls contain no compound or FGF-2. Cells are incubated at 37° C./5% CO2 for 72 hours. Cells are enumerated indirectly using the acid phosphatase method (Connolly, D T et al., 1986, Anal. Biochem 152:136-140). After removal of growth medium, the cells are lysed in buffer containing Triton X-100. The chromogenic substrate for acid phosphatase, p-nitrophenyl phosphate is added at a concentration of 100 mM. After incubation for 75 min. at 37° C., the reaction is stopped with 1N NaOH, and color is measured using a multiwell microplate reader.
# Cells at a density of 6000/well were plated in wells of 48 well microplates on 0.1% gelatin in 200 μl M200/2% FCS, and were incubated at 37° C. in a humid atmosphere of 5% CO2 for 16 hrs. Compounds to be tested were diluted in M200 supplemented with 2% FCS and 1 ng/ml FGF-2 and added to the cells. Positive control contained no compound, and negative controls contained no compound or FGF-2. Cells were incubated at 37° C./5% CO2 for 72 hours. Cells were enumerated indirectly using the acid phosphatase method. After removal of growth medium, the cells were lysed in buffer containing the detergent Triton X-100. The chromogenic substrate for acid phosphatase, p-nitrophenyl phosphate was added at a concentration of 100 mM. After incubation for 75 min. at 37° C., the reaction was stopped with 1N NaOH and color was measured using a multiwell microplate reader.
# HUVEC proliferation assays were performed as described. Increasing concentrations of ATN-224 was added to cultures in the presence or absence of 100 μM MnTBAP (AG Scientific, San Diego). Cell number was estimated using the acid phosphatase method described above.
# angiogenesis = test: Matrigel plug assay (hemoglobin); assay type: in vivo; settings: mice
# Procedure: This assay is performed essentially as described by Passaniti et al. (Lab Invest. 67:519-528 (1992). Ice-cold Matrigel® (e.g., 500 μL) (Collaborative Biomedical Products, Inc., Bedford, Mass.) is mixed with heparin (e.g., 50 μg/ml), FGF-2 (e.g., 400 ng/ml) and the compound to be tested. In some assays, bFGF may be substituted with tumor cells as the angiogenic stimulus. The Matrigel® mixture is injected subcutaneously into 4-8 week-old athymic nude mice at sites near the abdominal midline, preferably 3 injections per mouse. The injected Matrigel® forms a palpable solid gel. Injection sites are chosen such that each animal receives a positive control plug (such as FGF-2+heparin), a negative control plug (e.g., buffer+heparin) and a plug that includes the compound being tested for its effect on angiogenesis, e.g., (FGF-2+heparin+compound). […] Hemoglobin (Hb) levels are determined using Drabkin's solution (e.g., obtained from Sigma) according to the manufacturers' instructions. […] The amount of fluorescence in the dispersed plug, determined fluorimetrically, also serves as a measure of angiogenesis in the plug. […]
# Matrigel® ([…]) on ice was mixed with heparin (50 mg/ml), FGF-2 (800 ng/ml), VEGF (300 ng/ml) and the test compound. […] Hemoglobin levels in the plugs were determined using Drabkin's solution according to the manufacturers' instructions (Sigma Chemicals). […]
# bovine SOD1 [1] = molecular target: T1, bovine SOD1 (Bos taurus, UniProt P00442); test: CuZn SOD (SOD1) activity assay, xanthine/xanthine oxidase with WST-1; assay type: biochemical; settings: for inhibition of SOD1 activity in vitro: in vitro enzyme assay, WST-1
# Procedure: SOD1 was assayed with a commercially available kit (Dojindo) based on the xanthine/xanthine oxidase superoxide generation reaction coupled to a water soluble tetrazolium salt, WST-1.
# Standard curves (0-13 nM) of bovine SOD were generated using the SOD1 assay described above in the presence of increasing concentrations of ATN-224. Appropriate blanks comprising ATN-224 in the absence of SOD1 enzyme were also generated. The inhibition of SOD1 activity was calculated from these standard curves.
# bovine SOD1 [2] = molecular target: T1, bovine SOD1; test: Removal of copper from SOD1 (gel filtration, ICP-MS); assay type: biochemical
# Procedure: […] The protein was then purified by gel filtration chromatography. The sample was then analyzed for molybdenum content and copper content by ICP-MS.
# intracellular CuZnSOD = molecular target: T2, intracellular CuZnSOD (Homo sapiens, UniProt P00441); test: Intracellular CuZnSOD activity in HUVECs; assay type: cell-based
# T2 construct: Lysates were assayed for SOD1 activity as described above; endogenous in cells; host or cells: HUVEC
# Procedure: HUVECs were plated on 0.1% gelatin at 2-4×10^6 cells in T-25 flasks in M200 medium with 2% FCS. Cells were incubated at 37° C./5% CO2 for 16 hrs. Cells were rinsed with M200/2% FCS and incubated for a further 2 hrs in medium to which varying concentration of ATN-224 and FGF-2 (at 1 ng/ml) were added. At various intervals, medium was removed and the cells lysed in lysis buffer. Lysates were assayed for SOD1 activity as described above. Lysates were also analyzed by Western blot using a SOD1-specific polyclonal antibody (Biodesign, ME). These experiments were repeated in increasing concentrations of serum.
# [3] = tested on: superoxide anions in HUVECs; settings: 72 hrs, ATN-224 at IC50, 5 μM DHE, vs control HUVECs
# Procedure: HUVECs were plated in 6 well cluster plates on 0.1% gelatin at 6000 cells/well in M200/2% FCS. Cells were incubated at 37° C./5% CO2 for 16 hrs. Cells were rinsed, and ATN-224 was added in medium supplemented with 1 ng/ml FGF-2. Cells were incubated at 37 ° for 72 hours, rinsed in PBS, and DHE (Molecular probes) was added (5 μM) to the cells. Cells were then visualized microscopically using a fluorescent lamp and a red filter.
# SOD1 = molecular target: T3, SOD1 (Homo sapiens, UniProt P00441); test: SOD1 activity in treated tumors; assay type: in vivo; settings: SOD1 protein unchanged (Western blot)
# T3 construct: from tissue
# [4] = Zn^2+, Fe^2+, Ca^2+, Mn^2+, Mg^2+; standard binding assays
# [5] = tested on: intracellular copper levels
# extracellular SOD = molecular target: T4, extracellular SOD (Homo sapiens, UniProt P08294); settings: alcoholics, compared to untreated alcoholics and healthy control; cited from earlier work
# T4 construct: DS administered to alcoholics reduced by 20% extracellular SOD activity
# T4 sequence (P08294 19-240): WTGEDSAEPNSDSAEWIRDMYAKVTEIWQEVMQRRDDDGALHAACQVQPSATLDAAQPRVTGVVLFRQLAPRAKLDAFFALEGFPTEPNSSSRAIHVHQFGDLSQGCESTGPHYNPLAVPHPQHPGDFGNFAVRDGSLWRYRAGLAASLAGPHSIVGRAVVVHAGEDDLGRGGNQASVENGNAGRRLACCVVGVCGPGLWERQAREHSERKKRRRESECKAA
# T2 sequence (P00441 whole entry): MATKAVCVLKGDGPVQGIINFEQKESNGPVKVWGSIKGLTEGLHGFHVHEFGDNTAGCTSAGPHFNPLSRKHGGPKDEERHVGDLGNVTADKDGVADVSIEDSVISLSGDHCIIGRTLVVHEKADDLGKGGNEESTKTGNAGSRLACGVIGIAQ
# T1 sequence (P00442 whole entry): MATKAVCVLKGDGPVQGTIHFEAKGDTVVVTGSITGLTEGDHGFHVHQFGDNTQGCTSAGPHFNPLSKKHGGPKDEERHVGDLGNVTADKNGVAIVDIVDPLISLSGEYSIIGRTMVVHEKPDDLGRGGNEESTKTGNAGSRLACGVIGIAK
# T3 sequence (P00441 whole entry, species assumed): as the sequence (P00441 whole entry) above
compound,measurement,setting,value
"O=C(O)c1ccc(/C2=C3\C=CC(=N3)/C(c3ccc(C(=O)O)cc3)=c3/cc/c4[n]3[Mn]([Cl])[n]3c2ccc3/C(c2ccc(C(=O)O)cc2)=C2/C=CC(=N2)\C=4c2ccc(C(=O)O)cc2)cc1 [MnTBAP, reference compound]",reversal of ATN-224 inhibition of cell proliferation,HUVEC; 100 μM MnTBAP with ATN-224,abrogate most of the inhibition
same,reversal of ATN-224 inhibition of angiogenesis,angiogenesis; MnTBAP with ATN-224 in plug,abrogated most of this inhibition
"C[N+](C)(C)CCO.C[N+](C)(C)CCO.[SH-].[SH-].[S]=[Mo]=[S] [ATN-224, choline tetrathiomolybdate]",IC50,"HUVEC; FGF-2 driven, 72 hours, read-out: IC50, inhibition of HUVEC proliferation",1000 to 2000 nM
same,inhibition of FGF-2 driven proliferation with copper added,HUVEC; equimolar concentrations of copper added,completely abrogated
same,inhibition of SOD1 activity in vitro,bovine SOD1 [1],inhibited this reaction
same,inhibition of generation of superoxide ions in the assay,bovine SOD1 [1]; xanthine/xanthine oxidase,did not act by inhibiting generation of superoxide ions
same,binding to CuZnSOD (Mo content of purified protein),bovine SOD1 [2],did not bind to CuZnSOD
same,copper content of CuZnSOD,bovine SOD1 [2],appreciable loss of copper
same,level of CuZnSOD protein (Western blot),intracellular CuZnSOD; HUVEC lysates,did not affect the level of CuZnSOD protein
same,inhibition of intracellular CuZnSOD,"intracellular CuZnSOD; HUVECs, 3 concentrations, up to 24 hours",dose and time dependent inhibition
same,effect of serum on intracellular CuZnSOD inhibition,intracellular CuZnSOD; increasing concentrations of serum,unaffected by the presence of serum
same,DHE fluorescence (superoxide),[3],strong fluorescence
same,angiogenesis in Matrigel plugs,"angiogenesis; compound in plug, 5 days",inhibited
same,SOD1 enzymatic activity in treated tumors,SOD1,reduced SOD1 enzymatic activity
same,binding to other metal cations,[4],does not bind detectably
same,inhibition of aldehyde dehydrogenase,aldehyde dehydrogenase,does not inhibit
same,intracellular copper levels,[5],does not increase intracellular copper levels
same,IL-8 expression,IL-8 expression,down-regulates IL-8 expression
O=C1CC(c2cccs2)Sc2ccccc2N1 (stereo not drawn) [ATN 722],inhibition of SOD1 activity in vitro,bovine SOD1 [1],inhibited SOD1 activity
c1csc(CSc2nc3ccccc3s2)c1 [ATN-714],inhibition of SOD1 activity in vitro,bovine SOD1 [1],inhibited SOD1 activity
"C[N+](C)(C)CCO.C[N+](C)(C)CCO.[S]=[W](=[S])([S-])[S-] [ATN-427, choline tetrathiotungstate]",inhibition of SOD1 activity in vitro,bovine SOD1 [1],inhibited SOD1 activity
same,inhibition of SOD1 activity in vitro,bovine SOD1 [1]; listed as choline tetrathiotungstate,effective inhibitor of SOD1 activity
"CCN(CC)C(=S)SSC(=S)N(CC)CC [DS, Tetraethylthiuram disulfide]",reduction of extracellular SOD activity,extracellular SOD,20%
CN(C)C1=NCC(CSC(=N)N)S1 (stereo not drawn) [ATN-719],inhibition of SOD1 activity in vitro,bovine SOD1 [1],inhibited SOD1 activity
